Source: patent US20240018120A1, “MAGL INHIBITORS” (H. LUNDBECK A/S, priority 2020, published 2024)

Assays:
MAGL [1] = target: T1, MAGL (Homo sapiens, UniProt Q99685); test: In vitro competitive substrate hydrolysis enzyme activity assay (pNPA), HEK293 cell lysates; type: biochemical; design: expressed in transfected cells; host or cells: HEK293; conditions: HEK293 lysate
T1 sequence (Q99685 1-303): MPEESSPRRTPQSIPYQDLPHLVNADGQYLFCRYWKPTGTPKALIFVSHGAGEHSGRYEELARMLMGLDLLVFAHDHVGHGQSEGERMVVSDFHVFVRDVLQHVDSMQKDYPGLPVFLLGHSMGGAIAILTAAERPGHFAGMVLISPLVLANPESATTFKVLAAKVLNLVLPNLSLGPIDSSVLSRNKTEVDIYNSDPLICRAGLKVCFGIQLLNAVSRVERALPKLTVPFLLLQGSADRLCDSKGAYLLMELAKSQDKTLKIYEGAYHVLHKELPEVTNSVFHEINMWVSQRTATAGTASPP
Method: HEK293 cell lysates expressing recombinant human MAGL enzyme and 4-nitrophenyl acetate (pNPA) substrate were diluted separately in 50 mM HEPES (pH 7.0) containing 200 mM KCl and 1 mM EDTA. Lysates (50 μL, ˜1.2 μg total protein) were preincubated with varying concentrations of inhibitors at 25° C. After 30 min, 2×pNPA substrate (50 μL, 2.5 mM) was added and the rate of substrate turnover was monitored by measuring the increase in absorbance at wavelength 405 nm for 20 minutes at 25° C. using a Biotek Neo2 plate reader. The mean velocity was converted to percent enzyme activity following background subtraction and normalization to DMSO controls. IC50 values were determined by fitting percent enzyme activities to a non-linear regression, 4-parameter, sigmoidal dose response function in Prism GraphPad.

MAGL [2] = target: T1, MAGL; test: In vitro competitive activity-based protein profiling, PC3 human cell membrane proteomes; type: biochemical; design: endogenous in cells; host or cells: PC3 human cells (membrane proteome); conditions: human PC3 membrane proteome; for inhibition at 1 µM: read-out: MAGL % inh. 1 μM (human PC3)
Method: PC3 human cell membrane proteomes (50 μL, 2.0 mg/mL total protein concentration) were preincubated with varying concentrations of inhibitors at 37° C. After 30 min, the ABPP probe JW912-Bodipy (1.0 μL, 50 μM in DMSO) was added and the mixture was incubated for 30 min at room temperature. Reactions were quenched with SDS loading buffer (15 μL-4×) and run on SDS-PAGE. Following gel imaging, serine hydrolase activity was determined by measuring fluorescent intensity of gel bands corresponding to MAGL using ImageJ 1.43u software. Intensities were converted to percent enzyme activity by normalizing to DMSO controls. IC50 values were determined by fitting percent enzyme activities to a non-linear regression, 4-parameter, sigmoidal dose response function in Prism GraphPad.

Compound	IC50 (MAGL [1])	inhibition at 1 µM (MAGL [2])	IC50 (MAGL [2])
O=C(OC(C(F)(F)F)C(F)(F)F)N1CCC2(CC1)CC2C(=O)N1CCN(C2CC2)CC1 (racemic) [Example 34, 1,1,1,3,3,3-Hexafluoropropan-2-yl (±)1-(4-cyclopropylpiperazine-1-carbonyl)-6-azaspiro[2.5]octane-6-carboxylate]	0.148 µM	100%	
O=C(OC(C(F)(F)F)C(F)(F)F)N1CCC2(CC1)CC2C(=O)N1CCn2c(nnc2C2CC2)C1 (racemic) [Example 185, 1,1,1,3,3,3-hexafluoropropan-2-yl (+)1-(3-cyclopropyl-5,6,7,8-tetrahydro-[1,2,4]triazolo[4,3-a]pyrazine-7-carbonyl)-6-azaspiro[2.5]octane-6-carboxylate]	0.862 µM	90%	0.4 µM
O=C(OC(C(F)(F)F)C(F)(F)F)N1CCC2(CC1)CC2C(=O)N1CCn2ccnc2C1 (racemic) [Example 186, 1,1,1,3,3,3-hexafluoropropan-2-yl (+)1-(5,6,7,8-tetrahydroimidazo[1,2-a]pyrazine-7-carbonyl)-6-azaspiro[2.5]octane-6-carboxylate]	0.168 µM	100%	
O=C(OC(C(F)(F)F)C(F)(F)F)N1CCC2(CC1)CC2C(=O)N1CCc2cncnc2C1 (racemic) [Example 187, 1,1,1,3,3,3-hexafluoropropan-2-yl (+)1-(5,6,7,8-tetrahydropyrido[3,4-d]pyrimidine-7-carbonyl)-6-azaspiro[2.5]octane-6-carboxylate]	0.143 µM	100%	0.11 µM
CN(C(=O)C1CC12CCN(C(=O)OC(C(F)(F)F)C(F)(F)F)CC2)c1cccnn1 (racemic) [Example 188, 1,1,1,3,3,3-hexafluoropropan-2-yl (+)1-(methyl(pyridazin-3-yl)carbamoyl)-6-azaspiro[2.5]octane-6-carboxylate]	0.249 µM	100%	0.12 µM
O=C(Nc1cccnc1)[C@@H]1CC12CCN(C(=O)OC(C(F)(F)F)C(F)(F)F)CC2 (single isomer, unassigned) [Example 3]	0.435 µM	100%	0.127 µM
CN(C(=O)[C@@H]1CC12CCN(C(=O)OC(C(F)(F)F)C(F)(F)F)CC2)c1cnccn1 (single isomer, unassigned) [Example 11]	0.0993 µM	100%	0.032 µM
CN(C(=O)[C@H]1CC12CCN(C(=O)OC(C(F)(F)F)C(F)(F)F)CC2)c1cnccn1 (single isomer, unassigned) [Example 12]	0.102 µM	100%	
O=C(Nc1ccnc(C(F)(F)F)n1)[C@H]1CC12CCN(C(=O)OC(C(F)(F)F)C(F)(F)F)CC2 (single isomer, unassigned) [Example 17]	0.00421 µM	100%	0.001 µM
O=C(Nc1ccnc(C(F)(F)F)n1)[C@@H]1CC12CCN(C(=O)OC(C(F)(F)F)C(F)(F)F)CC2 (single isomer, unassigned) [Example 18]	0.053 µM	100%	0.039 µM
O=C(Nc1cncc(F)c1)C1CC12CCN(C(=O)OC(C(F)(F)F)C(F)(F)F)CC2 (single isomer, unassigned) [Example 39, 1,1,1,3,3,3-hexafluoropropan-2-yl (R or S)-1-((5-fluoropyridin-3-yl)carbamoyl)-6-azaspiro[2.5]octane-6-carboxylate]	0.319 µM	90%	0.29 µM
CN(C(=O)C1CC12CCN(C(=O)OC(C(F)(F)F)C(F)(F)F)CC2)c1ccccn1 (single isomer, unassigned) [Example 46, 1,1,1,3,3,3-hexafluoropropan-2-yl (R or S)-1-(methyl(pyridin-2-yl)carbamoyl)-6-azaspiro[2.5]octane-6-carboxylate]	0.133 µM		
O=C(Nc1ccccn1)C1CC12CCN(C(=O)OC(C(F)(F)F)C(F)(F)F)CC2 (single isomer, unassigned) [Example 49, 1,1,1,3,3,3-hexafluoropropan-2-yl (R or S)-1-(pyridin-2-ylcarbamoyl)-6-azaspiro[2.5]octane-6-carboxylate]	0.003 µM		
O=C(OC(C(F)(F)F)C(F)(F)F)N1CCC2(CC1)CC2C(=O)N1CCn2cc(C(F)(F)F)nc2C1 (single isomer, unassigned) [Example 52, 1,1,1,3,3,3-hexafluoropropan-2-yl (R or S)-1-(2-(trifluoromethyl)-5,6,7,8-tetrahydroimidazo[1,2-a]pyrazine-7-carbonyl)-6-azaspiro[2.5]octane-6-carboxylate]	0.155 µM		
O=C(Nc1cnccn1)C1CC12CCN(C(=O)OC(C(F)(F)F)C(F)(F)F)CC2 (single isomer, unassigned) [Example 55, 1,1,1,3,3,3-hexafluoropropan-2-yl (R or S)-1-(pyrazin-2-ylcarbamoyl)-6-azaspiro[2.5]octane-6-carboxylate]	0.028 µM		
O=C(OC(C(F)(F)F)C(F)(F)F)N1CCC2(CC1)CC2C(=O)N1CCc2ncncc2C1 (single isomer, unassigned) [Example 61, 1,1,1,3,3,3-hexafluoropropan-2-yl (R or S)-1-(5,6,7,8-tetrahydropyrido[4,3-d]pyrimidine-6-carbonyl)-6-azaspiro[2.5]octane-6-carboxylate]	0.684 µM		
O=C(OC(C(F)(F)F)C(F)(F)F)N1CCC2(CC1)CC2C(=O)N1CCc2nc(C3CC3)ncc2C1 (single isomer, unassigned) [Example 64, 1,1,1,3,3,3-hexafluoropropan-2-yl (R or S)-1-(2-cyclopropyl-5,6,7,8-tetrahydropyrido[4,3-d]pyrimidine-6-carbonyl)-6-azaspiro[2.5]octane-6-carboxylate]	0.103 µM		
O=C(Nc1cncc(Cl)c1)C1CC12CCN(C(=O)OC(C(F)(F)F)C(F)(F)F)CC2 (single isomer, unassigned) [Example 67, 1,1,1,3,3,3-hexafluoropropan-2-yl (R or S)-1-((5-chloropyridin-3-yl)carbamoyl)-6-azaspiro[2.5]octane-6-carboxylate]	0.0485 µM		
Cc1ncccc1NC(=O)C1CC12CCN(C(=O)OC(C(F)(F)F)C(F)(F)F)CC2 (single isomer, unassigned) [Example 69, 1,1,1,3,3,3-hexafluoropropan-2-yl (R or S)-1-((2-methylpyridin-3-yl)carbamoyl)-6-azaspiro[2.5]octane-6-carboxylate]	0.0136 µM		
Cc1ncccc1NC(=O)C1CC12CCN(C(=O)OC(C(F)(F)F)C(F)(F)F)CC2 (single isomer, unassigned) [Example 70, 1,1,1,3,3,3-hexafluoropropan-2-yl (R or S)-1-((2-methylpyridin-3-yl)carbamoyl)-6-azaspiro[2.5]octane-6-carboxylate]	0.985 µM		
O=C(Nc1cccc(C(F)(F)F)n1)C1CC12CCN(C(=O)OC(C(F)(F)F)C(F)(F)F)CC2 (single isomer, unassigned) [Example 73, 1,1,1,3,3,3-hexafluoropropan-2-yl (R or S)-1-((6-(trifluoromethyl)pyridin-2-yl)carbamoyl)-6-azaspiro[2.5]octane-6-carboxylate]	0.0003 µM		
O=C(Nc1ccc(C(F)(F)F)nc1)C1CC12CCN(C(=O)OC(C(F)(F)F)C(F)(F)F)CC2 (single isomer, unassigned) [Example 79, 1,1,1,3,3,3-hexafluoropropan-2-yl (R or S)-1-((6-(trifluoromethyl)pyridin-3-yl)carbamoyl)-6-azaspiro[2.5]octane-6-carboxylate]	0.851 µM		
Cc1ccc(NC(=O)C2CC23CCN(C(=O)OC(C(F)(F)F)C(F)(F)F)CC3)cn1 (single isomer, unassigned) [Example 82, 1,1,1,3,3,3-hexafluoropropan-2-yl (R or S)-1-((6-methylpyridin-3-yl)carbamoyl)-6-azaspiro[2.5]octane-6-carboxylate]	0.118 µM		
O=C(Nc1cnc(C(F)(F)F)nc1)C1CC12CCN(C(=O)OC(C(F)(F)F)C(F)(F)F)CC2 (single isomer, unassigned) [Example 100, 1,1,1,3,3,3-hexafluoropropan-2-yl (R or S)-1-((2-(trifluoromethyl)pyrimidin-5-yl)carbamoyl)-6-azaspiro[2.5]octane-6-carboxylate]	0.736 µM		
O=C(NC1CCOCC1)[C@@H]1CC12CCN(C(=O)OC(C(F)(F)F)C(F)(F)F)CC2 [Example 9, 1,1,1,3,3,3-Hexafluoropropan-2-yl (R)-1-((tetrahydro-2H-pyran-4-yl)carbamoyl)-6-azaspiro[2.5]octane-6-carboxylate]			0.727 µM
